Data taken from EP4603105A1, “PHARMACEUTICAL COMPOSITION CONTAINING CYCLIC COMPOUND HAVING SELECTIVE KRAS INHIBITORY EFFECT AGAINST HRAS AND NRAS” (CHUGAI SEIYAKU KABUSHIKI KAISHA, priority 2022, dated 2024).
Read-outs that look alike come from different tables or passages of the source.

What was measured:
[1] = target: GDP-bound KRAS wild-type protein (Homo sapiens, UniProt P01116); assay: Binding to KRAS by surface plasmon resonance (SPR), dissociation constant KD
How it was run: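 Each cycle, GDP-bound biotin-Avi RAS was captured (~100–300 RU), compound concentrations were injected low to high for 75 s each at 100 µL/min, then the chip was regenerated. Buffer: HBS pH 7.4, 10 mM MgCl2, 10 µM GDP, 1 mM DTT, 4% DMSO; 30°C. KD from a 1:1 binding model.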

[2] = target: GDP-bound NRAS wild-type protein (Homo sapiens, UniProt P01111); assay: Binding to NRAS by surface plasmon resonance (SPR), KD and KD ratio to KRAS
GDP-bound NRAS wild-type protein, sequence (P01111 whole entry): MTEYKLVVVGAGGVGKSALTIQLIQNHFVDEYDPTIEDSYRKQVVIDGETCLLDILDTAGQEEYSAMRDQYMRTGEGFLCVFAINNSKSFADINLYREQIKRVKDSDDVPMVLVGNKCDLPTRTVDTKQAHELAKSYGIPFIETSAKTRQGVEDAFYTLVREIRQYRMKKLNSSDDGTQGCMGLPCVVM
How it was run: (§1)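 Single-cycle kinetics on GDP-loaded biotin-Avi RAS captured to ~100–300 RU; 75 s ascending injections, 100 µL/min, 30°C. HBS pH 7.4 + 10 mM MgCl2/10 µM GDP/4% DMSO. 1:1 fit, KD.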

[3] = target: HRAS wild-type protein (Homo sapiens, UniProt P01112); assay: Binding to HRAS by surface plasmon resonance (SPR), KD and KD ratio to KRAS
HRAS wild-type protein, sequence (P01112 whole entry): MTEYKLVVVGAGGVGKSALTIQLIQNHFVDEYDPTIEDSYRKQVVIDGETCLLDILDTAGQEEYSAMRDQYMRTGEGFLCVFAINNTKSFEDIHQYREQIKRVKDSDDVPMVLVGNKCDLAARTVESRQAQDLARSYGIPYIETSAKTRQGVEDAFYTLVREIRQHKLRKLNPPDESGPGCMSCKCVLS
How it was run: as §1

[4] = system: human lung cancer strain NCI-H441; assay: NCI-H441 cell proliferation inhibitory activity (CellTiter-Glo, 4 days); assay type: cell-based; details: read-out: NCl-H441 IC50
How it was run: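 Proliferation was scored by […] measured after the reagent was added to cultures kept at 37°C in 5% carbon dioxide.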

[5] = ratio of KD for GDP-bound NRAS wild-type protein to KD for KRAS
[6] = ratio of KD for HRAS wild-type protein to KD for KRAS
[7] = Single Cycle Kinetics, 1:1 binding model
[8] = ratio of KD with respect to GDP-bound NRAS wild-type protein to KD with respect to KRAS
[9] = ratio of KD with respect to HRAS wild-type protein to KD with respect to KRAS
[10] = 50% proliferation inhibitory concentration, four days

GDP-bound KRAS wild-type protein, sequence (P01116 1-188 isoform P01116-2): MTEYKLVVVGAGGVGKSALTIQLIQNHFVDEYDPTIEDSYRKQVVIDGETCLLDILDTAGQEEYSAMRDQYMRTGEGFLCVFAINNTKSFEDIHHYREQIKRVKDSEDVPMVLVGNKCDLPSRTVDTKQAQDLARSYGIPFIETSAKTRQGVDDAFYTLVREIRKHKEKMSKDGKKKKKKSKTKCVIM

Kd ([1]; 1:1 binding model) [nM] | IC50 ([4]; NCI-H441 cells, 4 days) [nM] | Kd ([1]; Single Cycle Kinetics) [nM] | Kd [1, 7] [nM] | IC50 [4, 10] [nM] | Structure (SMILES) | NRAS /KRAS [2, 5] | HRAS /KRAS [3, 6] | NRAS /KRAS [2, 8] | HRAS /KRAS [3, 9]
0.86 | 71.9 |  |  |  | CCOC[C@H]1C(=O)N[C@@H]([C@@H](C)CC)C(=O)N(C)CC(=O)N(C)[C@H]2C/C=C\CCN(C2=O)[C@@H](Cc2ccc(C(F)(F)F)cc2)C(=O)N(C)CC(=O)N[C@@H](CCc2cc(F)c(C(F)(F)F)c(F)c2)C(=O)N2C[C@H](OCC)C[C@H]2C(=O)NC2(CC(C)(C)C2)C(=O)N(C)[C@@H](CC2CCC2)C(=O)N(C)[C@H](C(=O)N(C)C)CC(=O)N1C [PP2763] | A (a compound having 10 or more and less than 20 is denoted as A) | A (a compound having 10 or more and less than 20 is denoted as A) |  | 
0.12 | 5.2 |  |  |  | CCOC[C@H]1C(=O)N[C@@H]([C@@H](C)CC)C(=O)N(C)CC(=O)N(C)[C@H]2C/C=C\CCN(C2=O)[C@@H](Cc2ccc(C(F)(F)F)cc2)C(=O)N(C)CC(=O)N[C@@H](CCc2ccc(C(F)(F)F)c(OC)c2)C(=O)N2C[C@H](OCC)C[C@H]2C(=O)N(C)C2(CCC2)C(=O)N(C)[C@@H](C(CC)CC)C(=O)N(C)[C@H](C(=O)N(C)C)CC(=O)N1C [PP2383] | A (a compound having 10 or more and less than 20 is denoted as A) | A (a compound having 10 or more and less than 20 is denoted as A) |  | 
 | 65.5 | 1.3 |  |  | C=C(C)C[C@H]1C(=O)N(C)[C@H](C(=O)N(C)C)CC(=O)N(C)[C@@H](CCC)C(=O)N[C@@H]([C@@H](C)CC)C(=O)N(C)CC(=O)N(C)[C@H]2C/C=C\CCN(C2=O)[C@@H](Cc2ccc(C(F)(F)F)cc2)C(=O)N(C)CC(=O)N[C@@H](CCc2cc(F)c(C(F)(F)F)c(F)c2)C(=O)N2C[C@H](OCC)C[C@H]2C(=O)N(C)C2(CCC2)C(=O)N1C [PP3337] | A (a compound having 10 or more and less than 20 is denoted as A) | A (a compound having 10 or more and less than 20 is denoted as A) |  | 
 | 73.5 | 0.75 |  |  | CCCO[C@@H]1C[C@H]2C(=O)NC3(CC(C)(C)C3)C(=O)N(C)[C@@H](C3CCCC3)C(=O)N(C)[C@H](C(=O)N(C)CC)CC(=O)N[C@@H](COCC)C(=O)N[C@@H]([C@@H](C)CC)C(=O)N3C[C@@H](F)C[C@H]3C(=O)N(C)[C@H]3C/C=C\CCN(C3=O)[C@@H](Cc3ccc(C)cc3)C(=O)N(C)CC(=O)N[C@@H](CCc3ccc(C(F)(F)F)c(OC)c3)C(=O)N2C1 [PP3443] | A (a compound having 10 or more and less than 20 is denoted as A) | A (a compound having 10 or more and less than 20 is denoted as A) |  | 
 |  |  | 0.36 | 69 | CCC[C@H]1C(=O)N[C@@H]([C@@H](C)CC)C(=O)N(C)CC(=O)N(C)[C@H]2C/C=C\CCN(C2=O)[C@@H](Cc2ccc(C(F)(F)F)cc2)C(=O)N(C)CC(=O)N[C@@H](CCc2ccc3sccc3c2)C(=O)N2C[C@H](OCC)C[C@H]2C(=O)NC2(CCC2)C(=O)N(C)[C@@H](C2CCCC2)C(=O)N(C)[C@H](C(=O)N(C)C)CC(=O)N1C [PP1256] |  |  | A (a compound having 10 or more and less than 20 is denoted as A) | A (a compound having 10 or more and less than 20 is denoted as A)
 | 18.7 | 0.77 |  |  | CCC[C@H]1C(=O)N[C@@H](C2CCCC2)C(=O)N(C)CC(=O)N(C)[C@H]2C/C=C\CCN(C2=O)[C@@H](Cc2ccc(C)cc2)C(=O)N(C)CC(=O)N[C@@H](CCc2cc(F)c(C(F)(F)F)c(F)c2)C(=O)N2CC3(CC3)C[C@H]2C(=O)NC2(CCC2)C(=O)N(C)[C@@H](C(CC)CC)C(=O)N(C)[C@H](C(=O)N(C)C)CC(=O)N1C [PP3428] | A (a compound having 10 or more and less than 20 is denoted as A) | A (a compound having 10 or more and less than 20 is denoted as A) |  | 
 |  |  | 0.42 | 62.5 | CCO[C@@H]1C[C@H]2C(=O)NC3(CCC3)C(=O)N(C)[C@@H](C3CCCC3)C(=O)N(C)[C@H](C)CC(=O)N(C)[C@@H](CC3CCCC3)C(=O)N[C@@H]([C@@H](C)CC)C(=O)N(C)CC(=O)N(C)[C@H]3C/C=C\CCN(C3=O)[C@@H](Cc3ccc(C)cc3)C(=O)N(C)CC(=O)N[C@@H](CCc3cc(F)c(C(F)(F)F)c(F)c3)C(=O)N2C1 [PP1413] |  |  | B (a compound having 3 or more and less than 10 is denoted as B) | B (a compound having 3 or more and less than 10 is denoted as B)
 | 12.1 | 0.047 |  |  | CCC[C@H]1C(=O)N[C@@H]([C@@H](C)CC)C(=O)N(C)CC(=O)N(C)[C@H]2C/C=C\CCN(C2=O)[C@@H](Cc2ccc(C(F)(F)F)cc2)C(=O)N(C)CC(=O)N[C@@H](CCc2ccc(C(F)(F)F)c(Cl)c2)C(=O)N2CC3(CC3)C[C@H]2C(=O)NC2(CCC2)C(=O)N(C)[C@@H](C2CCCC2)C(=O)N(C)[C@H](C(=O)N(C)C)CC(=O)N1C [PP3440] | AA (a compound having 20 or more is denoted as AA) | A (a compound having 10 or more and less than 20 is denoted as A) |  | 
 |  |  | 0.88 | 67.9 | CCCCCC[C@H]1C(=O)N[C@@H]([C@@H](C)CC)C(=O)N(C)CC(=O)N(C)[C@H]2C/C=C\CCN(C2=O)[C@@H](Cc2ccc(C(F)(F)F)cc2)C(=O)N(C)CC(=O)N[C@@H](CCc2ccc(Cl)c(Cl)c2)C(=O)N2C[C@H](OCC)C[C@H]2C(=O)NC2(CCC2)C(=O)N(C)[C@@H](C(CC)CC)C(=O)N(C)[C@H](C(=O)N(C)C)CC(=O)N1C [PP1218] |  |  | AA (a compound having 20 or more is denoted as AA) | A (a compound having 10 or more and less than 20 is denoted as A)
 |  |  | 0.024 | 4.6 | CCO[C@@H]1C[C@H]2C(=O)NC3(CCCC3)C(=O)N(C)[C@@H](C3CCCC3)C(=O)N(C)[C@H](C(=O)N(C)C)CC(=O)N(C)[C@@H](CC)C(=O)N[C@@H]([C@@H](C)CC)C(=O)N(C)CC(=O)N(C)[C@H]3C[C@@H](C)[C@@H](C)CN(C3=O)[C@@H](Cc3ccc(C(F)(F)F)cc3)C(=O)N(C)CC(=O)N[C@@H](CCc3cc(F)c(C(F)(F)F)c(F)c3)C(=O)N2C1 [PP1352] |  |  | A (a compound having 10 or more and less than 20 is denoted as A) | B (a compound having 3 or more and less than 10 is denoted as B)
0.71 | 18.7 |  |  |  | CCOC[C@H]1C(=O)N[C@@H]([C@@H](C)CC)C(=O)N(C)CC(=O)N(C)[C@H]2C/C=C\CCN(C2=O)[C@@H](CC2CCC(F)(F)CC2)C(=O)N(C)CC(=O)N[C@@H](CCc2ccc(C(F)(F)F)c(Cl)c2)C(=O)N2C[C@H](OCC)C[C@H]2C(=O)NC2(CC(C)(C)C2)C(=O)N(C)[C@@H](C(CC)CC)C(=O)N(C)[C@H](C(=O)N(C)C)CC(=O)N1C [PP2460] | A (a compound having 10 or more and less than 20 is denoted as A) | A (a compound having 10 or more and less than 20 is denoted as A) |  | 
 | 11.7 | 0.51 |  |  | CCC[C@H]1C(=O)N[C@@H]([C@@H](C)CC)C(=O)N(C2CC2)CC(=O)N(C)[C@H]2C/C=C\CCN(C2=O)[C@@H](Cc2ccc(C)cc2)C(=O)N(C)CC(=O)N[C@@H](CCc2cc(F)c(C(F)(F)F)c(F)c2)C(=O)N2C[C@H](OCC)C[C@H]2C(=O)NC2(CCCC2)C(=O)N(C)[C@@H](C2CCCC2)C(=O)N(C)[C@H](C(=O)N(C)C)CC(=O)N1C [PP3479] | A (a compound having 10 or more and less than 20 is denoted as A) | A (a compound having 10 or more and less than 20 is denoted as A) |  | 
0.49 | 20 |  |  |  | CCC(CC)[C@H]1C(=O)N(C)[C@H](C(=O)N(C)C)CC(=O)N(C)[C@@H](COC)C(=O)N[C@@H]([C@@H](C)CC)C(=O)N(C)CC(=O)N(C)[C@H]2C/C=C\CCN(C2=O)[C@@H](Cc2ccc(C(F)(F)F)cc2)C(=O)N(C)CC(=O)N[C@@H](CCc2ccc(Cl)c(Cl)c2)C(=O)N2C[C@H](OC(C)C)C[C@H]2C(=O)NC2(CC(C)(C)C2)C(=O)N1C [PP2533] | AA (a compound having 20 or more is denoted as AA) | A (a compound having 10 or more and less than 20 is denoted as A) |  | 
0.44 | 20.1 |  |  |  | CCO[C@@H]1C[C@H]2C(=O)NC3(CC(C)(C)C3)C(=O)N(C)[C@@H](C(CC)CC)C(=O)N(C)[C@H](C(=O)N(C)C)CC(=O)N(C)[C@@H](COC)C(=O)N[C@@H]([C@@H](C)CC)C(=O)N(C)CC(=O)N(C)[C@H]3C/C=C\CCN(C3=O)[C@@H](CC3CCC(F)(F)CC3)C(=O)N(C)CC(=O)N[C@@H](CCc3cc(F)c(C(F)(F)F)c(F)c3)C(=O)N2C1 [PP2440] | A (a compound having 10 or more and less than 20 is denoted as A) | A (a compound having 10 or more and less than 20 is denoted as A) |  | 
6.2 | 97.3 |  |  |  | CCC(CC)[C@H]1C(=O)N(C)[C@H](C(=O)N(C)C)CC(=O)N(C)[C@@H](C(C)C)C(=O)N[C@@H]([C@@H](C)CC)C(=O)N(C)CC(=O)N(C)[C@H]2C/C=C\CCN(C2=O)[C@@H](CC2CCC(F)(F)CC2)C(=O)N(C)CC(=O)N[C@@H](CCc2cc(F)c(C(F)(F)F)c(F)c2)C(=O)N2C[C@@H](C)C[C@H]2C(=O)NC2(CC(C)(C)C2)C(=O)N1C [PP2496] | A (a compound having 10 or more and less than 20 is denoted as A) | A (a compound having 10 or more and less than 20 is denoted as A) |  | 
